Assays:
[1] = target: T1, SETDB1 (Homo sapiens, UniProt Q15047); assay: ITC binding to SETDB1; conditions: Fig. 1c
T1 construct: SETDB1 (aa 190–410); His (N, cleaved yes); made in house; host or cells: E. coli BL21 (DE3) Codon plus RIL
Text: (§1) The coding DNA fragments of following Tudor domains were cloned into pET28-MHL vector: SMN (aa 82–147), UHRF1 (aa 126–285), SMNDC1 (aa 53–130), TDRD3 (aa 554–611), SND1 (aa 650–910), TDRD2 (aa 327–420), FXR1 (aa 2–132), PHF1 (aa 28–87), SGF29 (aa 115–293), JMJD2A (aa 897–1101), 53BP1 (aa 1483–1606), SETDB1 (aa 190–410), LBR (aa 1–67), ZGPAT (aa 120–271). The coding regions of chromodomain of CBX7 (aa 8–62), PWWP domain of DNMT3A (aa 275–417), WD40 repeats of WDR5 (aa 24–334) and CW domain of ZCWPW2 (aa 21–78) were also subcloned into pET28-MHL vector to generate N-terminally His-tagged fusion protein. The MBT repeats of L3MBTL1 (aa 200–522) and L3MBTL2 (aa 170–625) were subcloned into pET28GST-LIC vector to generate N-terminally GST-His-tagged fusion protein. All the plasmids were generated by ligase independent cloning (Vazyme Biotech, C112 or ABclonal Technology, RK21020). […] The molecular weight of all protein samples was measured by mass spectrometry.
(§2) For the ITC measurement, the concentrated proteins were diluted into 20 mM Tris-HCl, pH 7.5, 150 mM NaCl (ITC buffer); the lyophilized compounds were dissolved in the same buffer, and the pH value was adjusted by adding 2 M NaOH or 2 M HCl. […] Compound concentrations were calculated from the mass and the volume of the solvent. […]

[2] = target: T2, SMN_W102F (Homo sapiens, UniProt Q16637, W102F); assay: ITC binding to SMN Tudor mutant W102F; conditions: Fig. 3d
T2 construct: SMN (aa 82–147); His (N, cleaved yes); made in house; host or cells: E. coli BL21 (DE3) Codon plus RIL
Text: as §1, §2

[3] = target: T3, TDRD3_Y566W (Homo sapiens, UniProt Q9H7E2, Y566W); assay: ITC binding to TDRD3 mutant Y566W; conditions: Supplementary Fig. 11b, iTC-200; read-out: Kd, ITC binding curve, TDRD3_Y566W
T3 construct: TDRD3 (aa 554–611); His (N, cleaved yes); made in house; host or cells: E. coli BL21 (DE3) Codon plus RIL
Text: as §1, §2

[4] = target: T4, SMN_W102Y (Homo sapiens, UniProt Q16637, W102Y); assay: ITC binding to SMN Tudor mutant W102Y; conditions: Fig. 3d
T4 construct: SMN (aa 82–147); His (N, cleaved yes); made in house; host or cells: E. coli BL21 (DE3) Codon plus RIL
Text: as §1, §2

T4 sequence (Q16637 82-147 W102Y): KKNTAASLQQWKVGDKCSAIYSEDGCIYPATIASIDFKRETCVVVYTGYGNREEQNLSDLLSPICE
T2 sequence (Q16637 82-147 W102F): as the sequence (Q16637 82-147 W102Y) above, with Y21F counted along it
T3 sequence (Q9H7E2 554-611 Y566W): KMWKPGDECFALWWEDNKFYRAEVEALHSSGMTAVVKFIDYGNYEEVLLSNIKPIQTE

In the case of `Cn1c2c(c(=N)c3c1CCC3)CCC2` [Compound 1, 4-methyl-2,3,4,5,6,7-hexahydrodicyclopenta[b,e]pyridin-8(1H)-imine], the Kd [1] is reported as > 244 µM, the Kd [2] is reported as > 100 µM and the Kd [3] is reported as 3.8 ± 0.4 µM. It also gave a Kd [4] of 8.3 ± 1.1 µM.

— publication PMC9481570, “A small molecule antagonist of SMN disrupts the interaction between SMN and RNAP II” (Nature Communications, 2022)
